# Test results taken from patent US7160898B2, “Pharmacological treatment for sleep apnea” (Board of Trustees of The University of Illinois, priority 2002, dated 2007).
# Tests used:
# [1] = system: 5-hydroxytryptamine receptors; conditions: anesthetized animals, cited from earlier work; for apnea after intravenous administration: duration increased dose-dependently
# sleep apnea syndrome = conditions: cited from earlier work; for effect in patients with sleep apnea: literature reports
# [2] = system: animal model of sleep apnea; conditions: U.S. Pat. No. 5,075,290; cited from earlier work
# [3] = system: spontaneous sleep-related central apneas; experiment: Induction and suppression of sleep apneas by serotonin and GR38032F (Example 3); format: in vivo, rat (Sprague-Dawley); conditions: 6 hour recording
# Description: Ten adult male Sprague-Dawley rats (Sasco-King, Wilmington, Mass.; 300 g) were maintained on a 12-h light (08:00–20:00 hour)/12-hour dark (20:00–08:00) cycle for one week, housed in individual cages, and given ad libitum access to food and water. Following the one week of acclimatization, animals were prepared for physiological testing via the surgical procedures (i.e., implantation of cortical electrodes for EEG recording and neck muscle electrodes for EMG recording, implantation of a radiotelemetry transmitter for BP and HP monitoring) as set forth above in Example 1. After completion of the surgical procedures, animals were allowed a one week recovery period prior to use in the present study. Each animal was recorded on four occasions, with recordings for an individual animal separated by at least three days. Fifteen minutes prior to each recording, each animal received (via intraperitoneal injection), in random order, one of the following: (a) saline solution (control); (b) 0.79 mg/kg serotonin; (c) 0.1 mg/kg GR38032F plus 0.79 mg/kg serotonin; or (d) 0.1 mg/kg GR38032F. For the GR38032F+serotonin test group, 0.1 mg/kg GR38032F was administered at time 09:30 followed by 0.79 mg/kg serotonin at time 09:45. Polygraphic recordings were made from 10:00–16:00. Respiration BP, EEG, and EMG data were determined and recorded via the experimental procedure as specifically set forth above in Example 2. As in Example 2, sleep apneas, defined as cessation of respiratory effort for at least 2.5 s, were scored for each recording session and were associated with the stage in which they occurred: NREM or REM sleep. The duration requirement of 2.5 s represents at least two “missed” breaths, which is analogous to a 10-s apnea duration requirement in humans. The effects of sleep stage (NREM vs REM) and injection (control vs. administration of either serotonin alone, GR38032F+serotonin, or GR38032F alone) on apnea indexes, respiratory pattern, BP, and HP were tested using analysis of variance (ANOVA) with repeated measures. Multiple comparisons were controlled using Fisher's protected least-significance difference (PLSD). One-way ANOVA was also performed by nonparametric (Kruskal-Wallis) analysis. Conclusions using parametric and nonparametric ANOVA were identical in all cases.
# sleep/wake architecture = experiment: Sleep/wake architecture after 5-HT and GR38032F (Example 3); format: in vivo, rat (Sprague-Dawley); conditions: i.p.
# Description: Sleep and waking states were assessed using the biparietal EEG and nuchal EMG signals on 10-second epochs as described by Bennington et al. [Sleep, 17:28–36 (1994)]. This software discriminated wakefulness (W) as a high frequency low amplitude EEG with a concomitant high EMG tone, NREM sleep by increased spindle and […] activity together with decreased EMG tone, and REM sleep by a […] activity and an absence of EMG tone. Sleep efficiency was measured as the percentage of total recorded epochs staged as NREM or REM sleep.
# (§1) Each animal was recorded on four occasions, with recordings for an individual animal separated by at least three days. Fifteen minutes prior to each recording, each animal received (via intraperitoneal injection), in random order, one of the following: (a) saline solution (control); (b) 0.79 mg/kg serotonin; (c) 0.1 mg/kg GR38032F plus 0.79 mg/kg serotonin; or (d) 0.1 mg/kg GR38032F. For the GR38032F+serotonin test group, 0.1 mg/kg GR38032F was administered at time 09:30 followed by 0.79 mg/kg serotonin at time 09:45. Polygraphic recordings were made from 10:00–16:00.
# (§2) Respiration BP, EEG, and EMG data were determined and recorded via the experimental procedure as specifically set forth above in Example 2. As in Example 2, sleep apneas, defined as cessation of respiratory effort for at least 2.5 s, were scored for each recording session and were associated with the stage in which they occurred: NREM or REM sleep. The duration requirement of 2.5 s represents at least two “missed” breaths, which is analogous to a 10-s apnea duration requirement in humans.
# The effects of sleep stage (NREM vs REM) and injection (control vs. administration of either serotonin alone, GR38032F+serotonin, or GR38032F alone) on apnea indexes, respiratory pattern, BP, and HP were tested using analysis of variance (ANOVA) with repeated measures. Multiple comparisons were controlled using Fisher's protected least-significance difference (PLSD). One-way ANOVA was also performed by nonparametric (Kruskal-Wallis) analysis. Conclusions using parametric and nonparametric ANOVA were identical in all cases.
# RR, VE, mean BP, HP = experiment: Respiratory pattern, BP and HP after serotonin and GR38032F (Example 3); format: in vivo, rat (Sprague-Dawley)
# Description: Similar software (Experimenters' Workbench; Datawave Technologies, Longmont, Colo.) was employed to analyze the blood pressure waveform; for each beat of each recording, systolic (SBP) and diastolic (DBP) blood pressures and pulse interval were measured. The pulse interval provided a beat by beat estimate of HP. Mean BP (MBP) was estimated according to the weighted average of SBP and DBP for each beat: MBP=DBP+(SBP−DBP)/3. The parameters for each beat were also classified according to the sleep/wake state and recording hour during which they occurred.
# as §1, §2
# The effects of sleep stage (NREM vs REM) and injection (control vs. administration of either serotonin alone, GR38032F+serotonin, or GR38032F alone) on apnea indexes, respiratory pattern, BP, and HP were tested using analysis of variance (ANOVA) with repeated measures. Multiple comparisons were controlled using Fisher's protected least-significance difference (PLSD). One-way ANOVA was also performed by nonparametric (Kruskal-Wallis) analysis. […]
# [4] = percent recording time, 6 hours, 5-HT 0.79 mg/kg, GR38032F 0.1 mg/kg, mean ± SE
compound,measurement,setting,value
Cc1[nH]c2ccc(O)cc2c1CCN [2-methyl-5-hydroxytryptamine],apnea after intravenous administration,[1],produced transient apnea
N[C@@H](Cc1c[nH]c2ccccc12)C(=O)O [L-tryptophan],effect in patients with sleep apnea,sleep apnea syndrome,may have a beneficial effect on sleep apnea syndrome
CNCCCC1c2ccccc2C=Cc2ccccc21 [Protriptyline],effect in patients with sleep apnea,sleep apnea syndrome,variable results and frequent and significant side effects
CC(N)Cc1c[nH]c2ccc(O)cc12 (centres unmarked) [a-methyl-5-hydroxytryptamine],apnea after intravenous administration,[1],produced transient apnea
CC(=O)Nc1nnc(S(N)(=O)=O)s1 [acetazolamide],effect in patients with sleep apnea,sleep apnea syndrome,variable improvement in individuals with primary central apneas but caused an increase in obstructive apneas
Nc1ncnc2c1ncn2[C@@H]1O[C@H](CO)[C@@H](O)[C@H]1O [adenosine],reduction of apnea,[2],somewhat effective in reducing apnea
O=C1CC2(CCCC2)CC(=O)N1CCCCN1CCN(c2ncccn2)CC1 [buspirone],patients with sleep apnea syndrome with reduced apnea index,sleep apnea syndrome; Mendelson et al. 1991,4 of 5
same,effect in patients with sleep apnea,sleep apnea syndrome,eliminate post-surgical apneustic breathing in one child
CCN1CC(CCN2CCOCC2)C(c2ccccc2)(c2ccccc2)C1=O (centres unmarked) [doxapram],effect in patients with sleep apnea,sleep apnea syndrome,decrease the length of apneas but did not alter the average arterial oxygen saturation
CNCCC(Oc1ccc(C(F)(F)F)cc1)c1ccccc1 (centres unmarked) [fluoxetine],effect in patients with sleep apnea,sleep apnea syndrome,benefit some but not all patients with sleep apnea syndrome
O=C(c1ccc(F)cc1)C1CCN(CCn2c(=O)[nH]c3ccccc3c2=O)CC1 [ketanserine],antagonism of agonist-induced transient apnea,[1],significantly antagonized
CC[C@@H](CO)NC(=O)[C@@H]1C=C2c3cccc4c3c(cn4C)C[C@H]2N(C)C1 [methysergide],antagonism of agonist-induced transient apnea,[1],significantly antagonized
C=CCN1CC[C@]23c4c5ccc(O)c4O[C@H]2C(=O)CC[C@@]3(O)[C@H]1C5 [naloxone],effect in patients with sleep apnea,sleep apnea syndrome,only slightly helpful
Fc1ccc([C@@H]2CCNC[C@H]2COc2ccc3c(c2)OCO3)cc1 [paroxetine],effect in patients with sleep apnea,sleep apnea syndrome,benefit some but not all patients with sleep apnea syndrome
"NCCc1c[nH]c2ccc(O)cc12 [serotonin, 5-hydroxytryptamine]",spontaneous apnea index during NREM sleep,"[3]; i.p., serotonin 0.79 mg/kg, GR38032F 0.1 mg/kg",not affected by any drug treatment
same,increase of spontaneous apnea expression during REM sleep compared to control,[3]; serotonin 0.79 mg/kg i.p.,> 250%
same,effect on sleep architecture,sleep/wake architecture; 6 hours of polygraphic recording,had no effect on sleep architecture
same,% NREM,sleep/wake architecture; [4],59.9 ± 3.3%
same,% REM,sleep/wake architecture; [4],6.5 ± 1.1%
same,% Wakefulness,sleep/wake architecture; [4],30.2 ± 3.2%
same,"effect on RR, VE, mean BP, HP, or PS apnea index","RR, VE, mean BP, HP; i.p., serotonin 0.79 mg/kg, GR38032F 0.1 mg/kg, data not shown","had no effect on sleep, cardiovascular variables, RR, or VE"
same,beat-to-beat heart rate and BP variability (coefficients of variation),"RR, VE, mean BP, HP; serotonin 0.79 mg/kg i.p.",unaffected
same,changes in heart rate or mean BP,"RR, VE, mean BP, HP; serotonin 0.79 mg/kg i.p., 6 hour recording period",did not elicit changes in either heart rate or mean BP
same,apnea after intravenous administration,[1],produced transient apnea
Cn1c(=O)c2[nH]cnc2n(C)c1=O [theophylline],effect in patients with sleep apnea,sleep apnea syndrome,may benefit patients with central apnea but appears to be of no use in adult patients with obstructive apnea
medroxyprogesterone,effect in patients with sleep apnea,sleep apnea syndrome,no consistent benefit in OSAS
